Test results as given in article PMC9684503 (Communications Biology, 2022).
“And” between values parts separate entries of the source, which are not always exact repeats. Equal entries are not always repeated. Structures can show the parent of a compound that is named as a salt.

How the values were obtained:
rat VMAT2 P314A = rat VMAT2 P314A (Rattus norvegicus, UniProt Q01827, P314A); assay: FFN206 uptake assay, VMAT2 mutant
Protocol: (§1) For activity assays, [^3H]-DTBZ and [^3H]-SMT binding and competition assays (see section below), several VMAT2 mutants were prepared. […] In addition, a selection of rVMAT2 mutants carrying mutations designed from binding modes identified by docking and MD-simulation was prepared in a pcDNA3.1 rVMAT2-Strep tag II plasmid.

human VMAT1 = target: T1, human VMAT1 (Homo sapiens, UniProt P54219); assay: FFN206 uptake assay in transfected Hek293 cells; assay type: cell-based; conditions: Table S1, substrate uptake assays in transfected Hek293 cells
T1 construct: expressed in transfected cells; host or cells: Hek293 cells, transient
T1 sequence (P54219 1-525): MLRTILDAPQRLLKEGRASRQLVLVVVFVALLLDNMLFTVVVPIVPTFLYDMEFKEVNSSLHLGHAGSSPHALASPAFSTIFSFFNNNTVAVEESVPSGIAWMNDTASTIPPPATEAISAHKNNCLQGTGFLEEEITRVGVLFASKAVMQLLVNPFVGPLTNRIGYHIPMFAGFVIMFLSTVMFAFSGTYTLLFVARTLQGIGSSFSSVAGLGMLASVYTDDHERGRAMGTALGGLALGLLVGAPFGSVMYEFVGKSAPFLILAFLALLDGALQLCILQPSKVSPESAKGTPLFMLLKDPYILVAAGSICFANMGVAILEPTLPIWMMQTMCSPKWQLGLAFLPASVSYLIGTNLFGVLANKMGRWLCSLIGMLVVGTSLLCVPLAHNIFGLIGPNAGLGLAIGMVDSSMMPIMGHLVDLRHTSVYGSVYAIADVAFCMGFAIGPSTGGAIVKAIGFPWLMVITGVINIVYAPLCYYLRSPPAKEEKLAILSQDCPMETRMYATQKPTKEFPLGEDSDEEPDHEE

rat VMAT2-His = target: T2, rat VMAT2-His (Rattus norvegicus, UniProt Q01827); assay: Differential scanning fluorimetry (DSF) with CPM dye: change of melting temperature of purified VMAT2; assay type: binding; conditions: for ΔTm: Table 1, DSF screening, mean ± SD of triplicates; for ΔTm at 12 µM / ΔTm at 37 µM / ΔTm at 10 µM / ΔTm at 30 µM / ΔTm at 90 µM / ΔTm at 270 µM / ΔTm at 11 µM / ΔTm at 33 µM: Table S2 dose response, read-out: ΔTm; for ΔTm at 12 µM: compound 0,12 µM; for ΔTm at 37 µM: compound 0,37 µM; for ΔTm at 10 µM: compound 10 µM; for ΔTm at 30 µM: compound 30 µM; for ΔTm at 90 µM: compound 90 µM; for ΔTm at 270 µM: compound 270 µM; for ΔTm at 11 µM: compound 1,11 µM; for ΔTm at 33 µM: compound 3,33 µM
T2 construct: The ORF of rat VMAT2 was subcloned into a pFastBac vector; His; made in house; host or cells: Sf9 insect cells (baculovirus)
T2 sequence (Q01827 whole entry): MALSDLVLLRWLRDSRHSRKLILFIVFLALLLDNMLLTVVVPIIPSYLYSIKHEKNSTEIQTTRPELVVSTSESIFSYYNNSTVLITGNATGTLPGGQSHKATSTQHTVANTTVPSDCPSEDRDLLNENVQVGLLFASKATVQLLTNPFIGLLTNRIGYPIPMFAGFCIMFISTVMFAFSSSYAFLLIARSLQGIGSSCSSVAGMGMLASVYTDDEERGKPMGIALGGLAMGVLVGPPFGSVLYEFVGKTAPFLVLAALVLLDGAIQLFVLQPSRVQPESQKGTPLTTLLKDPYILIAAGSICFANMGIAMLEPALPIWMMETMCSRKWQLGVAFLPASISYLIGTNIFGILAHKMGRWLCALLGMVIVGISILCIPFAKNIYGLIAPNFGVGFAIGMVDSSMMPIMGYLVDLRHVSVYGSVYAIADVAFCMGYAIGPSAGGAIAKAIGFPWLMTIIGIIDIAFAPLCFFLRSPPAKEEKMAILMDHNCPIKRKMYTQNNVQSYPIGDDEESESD
Procedure, shortened: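 Rat VMAT2-His from Sf9 baculovirus cells, purified by IMAC and SEC in DDM/CHS micelles, was screened by CPM-dye DSF over a 25–95 °C ramp at 2 °C/min. Tm was taken from the second derivative of the melting curve. Hits were validated in triplicate at 200 μM, with ΔTm > 5× SD as the cutoff.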

VMAT2 [1] = target: T3, VMAT2 (Rattus norvegicus, UniProt Q01827); conditions: hek293 cells, 50 µM
T3 sequence (Q01827 whole entry): as above
Protocol: (§2) We preincubated cells expressing VMAT2 with 50 μM compounds and measured [^3H]-DTBZ binding (5 nM) to the sample (Fig. 3a). […] Hek293 cells were grown and transfected with pcDNA3.1 VMAT2-His as described above. Two days after transfection, cells were harvested, washed and transferred to 96 well MultiScreen FB filter plates (Millipore). […] Cells were washed 3 times with ice cold PBS and 50 µl Ultima Gold LLL (PerkinElmer) was added to each well. […] After a 20 min incubation at 37 °C, cells were washed and [^3H] scintillation counting was performed as described above.

human VMAT2 = target: T4, human VMAT2 (Homo sapiens, UniProt Q05940); assay: FFN206 uptake assay in transfected Hek293 cells; assay type: cell-based; conditions: Table S1, substrate uptake assays in transfected Hek293 cells
T4 construct: expressed in transfected cells; host or cells: Hek293 cells, transient
T4 sequence (Q05940 whole entry): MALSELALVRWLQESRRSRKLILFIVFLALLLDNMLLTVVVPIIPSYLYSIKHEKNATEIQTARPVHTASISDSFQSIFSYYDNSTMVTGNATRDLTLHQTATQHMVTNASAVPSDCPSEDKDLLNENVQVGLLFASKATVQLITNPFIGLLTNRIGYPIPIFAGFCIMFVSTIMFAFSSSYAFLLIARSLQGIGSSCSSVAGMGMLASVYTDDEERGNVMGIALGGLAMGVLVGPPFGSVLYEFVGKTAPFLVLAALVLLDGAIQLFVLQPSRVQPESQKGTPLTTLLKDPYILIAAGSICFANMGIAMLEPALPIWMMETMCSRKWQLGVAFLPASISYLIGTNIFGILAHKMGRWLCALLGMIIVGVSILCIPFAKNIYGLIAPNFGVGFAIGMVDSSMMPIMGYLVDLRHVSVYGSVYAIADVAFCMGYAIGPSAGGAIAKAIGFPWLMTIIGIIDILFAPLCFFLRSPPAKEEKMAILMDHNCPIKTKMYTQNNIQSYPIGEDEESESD

rat VMAT2 = rat VMAT2 (Rattus norvegicus, UniProt Q01827); assay: FFN206 uptake assay in transfected Hek293 cells; conditions: for VMAT2-specific FFN206 uptake relative to DMSO (=1), replicate samples: Fig. 2a source data, 25 μM compound
Sequence of rat VMAT2 (Q01827 whole entry): as the sequence (Q01827 whole entry) above

rat VMAT2 Y434A = rat VMAT2 Y434A (Rattus norvegicus, UniProt Q01827, Y434A); assay: FFN206 uptake assay, VMAT2 mutant
Sequence of rat VMAT2 Y434A (Q01827 whole entry Y434A): as the sequence (Q01827 whole entry) above, with Y434A counted along it
Protocol: as §1

VMAT2 [2] = target: T3, VMAT2; assay: [3H]-DTBZ competition assay in Hek293 cells expressing VMAT2;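 as to all read-outs here: HEK293 cells transfected with VMAT2, pretreated 30 min with compound, then given 5 nM [3H]-DTBZ for 20 min at 37 °C, bound label read by scintillation counting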; conditions: for effect on [3H]-DTBZ binding compared with DMSO control (one-way ANOVA, p < 0.001): 50 μM compound; for [3H]-DTBZ binding relative to no compound (=1), replicate samples: Fig. 3b source data
Protocol: as §2

rat VMAT2 Q143A = rat VMAT2 Q143A (Rattus norvegicus, UniProt Q01827, Q143A); assay: FFN206 uptake assay, VMAT2 mutant
Sequence of rat VMAT2 Q143A (Q01827 whole entry Q143A): as the sequence (Q01827 whole entry) above, with Q143A counted along it
Protocol: as §1

[3] = Fig. 2b/2c source data, compound 0.0152 μM
[4] = Fig. 2b/2c source data, compound 0.1372 μM
[5] = Fig. 2b/2c source data, compound 0.4115 μM
[6] = Fig. 2b/2c source data, compound 1.2346 μM
[7] = Fig. 2b/2c source data, compound 3.7037 μM
[8] = Fig. 2b/2c source data, compound 11.1111 μM
[9] = Fig. 2b/2c source data, compound 100.0000 μM
[10] = compound 100.0000 (μM per methods)

Sequence of rat VMAT2 P314A (Q01827 whole entry P314A): as the sequence (Q01827 whole entry) above, with P314A counted along it

IC50 (rat VMAT2 P314A) [nM] | IC50 (human VMAT1) [nM] | ΔTm (rat VMAT2-His) [oC] | ΔTm at 12 µM (rat VMAT2-His) [°C] | ΔTm at 37 µM (rat VMAT2-His) [°C] | ΔTm at 10 µM (rat VMAT2-His) [°C] | ΔTm at 30 µM (rat VMAT2-His) [°C] | ΔTm at 90 µM (rat VMAT2-His) [°C] | ΔTm at 270 µM (rat VMAT2-His) [°C] | ΔTm at 11 µM (rat VMAT2-His) [°C] | ΔTm at 33 µM (rat VMAT2-His) [°C] | activity (VMAT2 [1]) [%] | IC50 (human VMAT2) [nM] | IC50 (rat VMAT2) [nM] | Structure (SMILES) | VMAT2-specific FFN206 uptake relative to DMSO (=1), replicate samples (rat VMAT2) | FFN206 uptake relative to no compound (=1), replicate samples (rat VMAT2; [3]) | FFN206 uptake relative to no compound (=1), replicate samples (rat VMAT2; [4]) | FFN206 uptake relative to no compound (=1), replicate samples (rat VMAT2; [5]) | FFN206 uptake relative to no compound (=1), replicate samples (rat VMAT2; [6]) | FFN206 uptake relative to no compound (=1), replicate samples (rat VMAT2; [7]) | also measured
234 ± 65 | 23 ± 2 | 9.71 ± 0.22 | 5.78 | 6.25 | 7.48 | 7.9 | 8.7 | 10.5 | 6.55 | 7.04 | 0.37 ± 2.83 | 35 ± 16 | 53 ± 28 | OCc1cc(C(O)CNCCCCCCOCCCCc2ccccc2)ccc1O (centres unmarked) [Salmeterol] | 0.01652 and -0.1153 and -0.05311 and -0.0161 | 0.8683 and 0.9316 and 0.8545 and 0.8755 and 0.7872 and 0.8834 and 0.9116 and 0.9363 | 0.4384 and 0.5181 and 0.4428 and 0.5409 and 0.2594 and 0.3377 and 0.3056 and 0.4141 | 0.2986 and 0.3445 and 0.2962 and 0.3132 and 0.1258 and 0.1847 and 0.149 and 0.1946 | 0.2192 and 0.2619 and 0.2463 and 0.2625 and -0.00094 and 0.06663 and 0.05805 and 0.07997 | 0.2883 and 0.2538 and 0.257 and 0.1826 and 0.05594 and 0.1039 and 0.07279 and 0.105 | FFN206 uptake relative to no compound (=1), replicate samples (rat VMAT2; [8]): 0.2315 and 0.2175 and 0.2018 and 0.1642 and 0.02429 and 0.09314 and 0.05353 and 0.1229; FFN206 uptake relative to no compound (=1), replicate samples (rat VMAT2; [9]): 0.2045 and 0.2463 and 0.2058 and 0.2286 and -0.0325 and 0.06428 and 0.00994 and 0.07; FFN206 uptake relative to no compound (=1), replicate samples (rat VMAT2; Fig. 2c source data, compound 0.0017 μM): 0.9528 and 0.9756 and 1.008 and 0.9844; IC50 (rat VMAT2 Y434A): 126 ± 87 nM; effect on [3H]-DTBZ binding compared with DMSO control (one-way ANOVA, p < 0.001) (VMAT2 [2]): statistically significantly effect; [3H]-DTBZ binding relative to no compound (=1), replicate samples (VMAT2 [2]; compound 0.0017): 0.6032 and 1.156 and 0.8878 and 0.838; [3H]-DTBZ binding relative to no compound (=1), replicate samples (VMAT2 [2]; compound 0.0051): 0.6168 and 0.8711 and 1.077 and 0.9012; [3H]-DTBZ binding relative to no compound (=1), replicate samples (VMAT2 [2]; compound 0.0152): 0.7563 and 1.108 and 1.007; [3H]-DTBZ binding relative to no compound (=1), replicate samples (VMAT2 [2]; compound 0.0457): 0.5988 and 0.6867 and 0.7774 and 0.6452; [3H]-DTBZ binding relative to no compound (=1), replicate samples (VMAT2 [2]; compound 0.1372): 0.4074 and 0.4854 and 0.3736 and 0.3232; [3H]-DTBZ binding relative to no compound (=1), replicate samples (VMAT2 [2]; compound 0.4115): 0.02476 and 0.03862 and 0.09845 and 0.04206; [3H]-DTBZ binding relative to no compound (=1), replicate samples (VMAT2 [2]; compound 1.2346): 0.01432 and 0.02317 and 0.00733 and 0.04172; [3H]-DTBZ binding relative to no compound (=1), replicate samples (VMAT2 [2]; compound 3.7037): 0.02156 and 0.02614 and 0.01787 and 0.1343; [3H]-DTBZ binding relative to no compound (=1), replicate samples (VMAT2 [2]; compound 11.1111): -0.04565 and 0.05011 and -0.00482 and -0.01021; [3H]-DTBZ binding relative to no compound (=1), replicate samples (VMAT2 [2]; compound 33.3333): -0.01836 and -0.0105 and -0.00518 and -0.00848; [3H]-DTBZ binding relative to no compound (=1), replicate samples (VMAT2 [2]; [10]): 0.02729 and -0.01624 and -0.00322 and -0.00727; IC50 (rat VMAT2 Q143A): 148 ± 33 nM
132 ± 8 | 35 | 2.69 ± 0.12 | 0.41 | 0.68 | 0.6 | 0.71 | 1.13 | 1.82 | 0.69 | 0.58 | 36.5 ± 7.71 | 23 | 39 ± 17 | O=C1Cc2cc(CCN3CCN(c4nsc5ccccc45)CC3)c(Cl)cc2N1 [Ziprasidone, Ziprasidone Hydrochloride] | -0.0048 and -0.08665 and -0.06177 and 0.05752 | 0.7804 and 0.7848 and 0.755 and 0.7991 | 0.4886 and 0.4837 and 0.4034 and 0.5734 | 0.4342 and 0.3743 and 0.3683 and 0.4657 | 0.3953 and 0.3737 and 0.3153 and 0.4191 | 0.3802 and 0.3604 and 0.2907 and 0.3691 | fold increased IC50 vs wild-type (rat VMAT2 P314A; P314A): approx. 3 fold; FFN206 uptake relative to no compound (=1), replicate samples (rat VMAT2; [8]): 0.4118 and 0.377 and 0.294 and 0.3618; FFN206 uptake relative to no compound (=1), replicate samples (rat VMAT2; [9]): 0.3782 and 0.3789 and 0.3057 and 0.3727; effect on [3H]-DTBZ binding compared with DMSO control (one-way ANOVA, p < 0.001) (VMAT2 [2]): statistically significantly effect; [3H]-DTBZ binding relative to no compound (=1), replicate samples (VMAT2 [2]; compound 0.0017): 0.8751 and 1.064 and 1.013 and 0.8455; [3H]-DTBZ binding relative to no compound (=1), replicate samples (VMAT2 [2]; compound 0.0051): 0.8936 and 1.069 and 1.018 and 0.8322; [3H]-DTBZ binding relative to no compound (=1), replicate samples (VMAT2 [2]; compound 0.0152): 0.7303 and 1.42 and 1.076 and 0.8096; [3H]-DTBZ binding relative to no compound (=1), replicate samples (VMAT2 [2]; compound 0.0457): 0.8393 and 0.4876 and 0.8108 and 0.8579; [3H]-DTBZ binding relative to no compound (=1), replicate samples (VMAT2 [2]; compound 0.1372): 1.015 and 0.924 and 0.9381 and 0.7974; [3H]-DTBZ binding relative to no compound (=1), replicate samples (VMAT2 [2]; compound 0.4115): 0.6748 and 0.8924 and 0.7988 and 0.4363; [3H]-DTBZ binding relative to no compound (=1), replicate samples (VMAT2 [2]; compound 1.2346): 0.4427 and 0.7246 and 0.4654 and 0.6729; [3H]-DTBZ binding relative to no compound (=1), replicate samples (VMAT2 [2]; compound 3.7037): 0.6274 and 0.382 and 0.3472 and 0.5985; [3H]-DTBZ binding relative to no compound (=1), replicate samples (VMAT2 [2]; compound 11.1111): 0.6424 and 0.4197 and 0.5023 and 0.5651; [3H]-DTBZ binding relative to no compound (=1), replicate samples (VMAT2 [2]; compound 33.3333): 0.4189 and 0.1764 and 0.1269 and 0.541; [3H]-DTBZ binding relative to no compound (=1), replicate samples (VMAT2 [2]; [10]): 0.3228 and 0.1927 and 0.2304 and 0.2985; IC50 (rat VMAT2 Q143A): 354 ± 83 nM; fold increased IC50 vs wild-type (rat VMAT2 Q143A; Q143A): ~10 fold
